test system: HCV genotype 1b replicon; assay: HCV replicon assay, cell ELISA with antibody to replicon-encoded NS3/4A (genotype 1b replicon); format: cell-based, hepatitis C virus; details: Hepatitis C virus, 96 h, read-out: 1b IC50(nM), HCV genotype 1b replicon; 96 hours incubation; NS3/4A cell ELISA
Procedure, shortened: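 Replicon-harbouring cells carrying neomycin phosphotransferase were incubated 96 h with a compound dilution series without G418. Replication was quantified indirectly by a cell ELISA detecting replicon-encoded NS3/4A. IC50 values were calculated relative to DMSO control with a four-parameter fit.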

Compound	IC50 [nM]
CNC(=O)c1c(-c2ccc(F)cc2)oc2cc(N(C)S(C)(=O)=O)c(-c3ccc(F)c(-c4cc5cccnc5[nH]4)c3)cc12 [Example 855]	1.2
CNC(=O)c1c(-c2ccc(F)cc2)oc2cc(N(CCCO)S(C)(=O)=O)c(-c3cc(F)cc(-c4nc5ncccc5o4)c3)cc12 [Example 856]	4
CNC(=O)c1c(-c2ccc(F)cc2)oc2cc(N(C)S(C)(=O)=O)c(-c3ccc(OC)c(-c4nc5cc(F)ccc5o4)c3)cc12 [Example 857]	2.6
CNC(=O)c1c(-c2ccc(F)cc2)oc2cc(N(C)S(C)(=O)=O)c(-c3ccc(OC)c(-c4nc5cccc(C#N)c5o4)c3)cc12 [Example 858]	2.8
CNC(=O)c1c(-c2ccc(F)cc2)oc2cc(N(CCC(C)(C)O)S(C)(=O)=O)c(-c3cccc(-c4nc5ncccc5o4)c3)cc12 [Example 859]	2.1
CNC(=O)c1c(-c2ccc(F)cc2)oc2cc(N(C)S(C)(=O)=O)c(-c3ccc(OC)c(-c4cc5cc(F)ccc5[nH]4)c3)cc12 [Example 860]	1.9
CNC(=O)c1c(-c2ccc(F)cc2)oc2cc(N(C)S(C)(=O)=O)c(-c3cc(OC)cc(-c4cc5cccnc5[nH]4)c3)cc12 [Example 861]	1.8
CNC(=O)c1c(-c2ccc(F)cc2)oc2cc(N(C)S(C)(=O)=O)c(-c3cc(F)cc(-c4nc5ncc(F)cc5o4)c3)cc12 [Example 862]	1.3
CNC(=O)c1c(-c2ccc(F)cc2)oc2cc(N(CCCF)S(C)(=O)=O)c(-c3ccc(OC)c(-c4nc5ncccc5o4)c3)cc12 [Example 863]	1.8
CNC(=O)c1c(-c2ccc(F)cc2)oc2cc(N(C)S(C)(=O)=O)c(-c3ccc(Cl)c(-c4nc5c(F)cccc5o4)c3)cc12 [Example 865]	4.7
CNC(=O)c1c(-c2ccc(F)cc2)oc2cc(N(C)S(C)(=O)=O)c(-c3cc(OC)cc(-c4nc5ncccc5o4)c3)cc12 [Example 866]	3.1
CNC(=O)c1c(-c2ccc(F)cc2)oc2cc(N(CCCF)S(C)(=O)=O)c(-c3cccc(-c4nc5ncccc5o4)c3)cc12 [Example 868]	1.3
CNC(=O)c1c(-c2ccc(F)cc2)oc2cc(N(CC(F)F)S(C)(=O)=O)c(-c3cccc(-c4nc5ncccc5o4)c3)cc12 [Example 869]	2.3
CNC(=O)c1c(-c2ccc(F)cc2)oc2cc(N(CCF)S(C)(=O)=O)c(-c3ccc(OC)c(-c4nc5ncccc5o4)c3)cc12 [Example 870]	1.3
CNC(=O)c1c(-c2ccc(F)cc2)oc2cc(N(CCF)S(C)(=O)=O)c(-c3ccc(OC)c(-c4nc5cccc(F)c5o4)c3)cc12 [Example 871]	3.5
CNC(=O)c1c(-c2ccc(F)cc2)oc2cc(N(CCC(F)(F)F)S(C)(=O)=O)c(-c3cccc(-c4nc5ncccc5o4)c3)cc12 [Example 872]	4.7
CNC(=O)c1c(-c2ccc(F)cc2)oc2cc(N(CCF)S(C)(=O)=O)c(-c3cc(F)cc(-c4nc5ncccc5o4)c3)cc12 [Example 873]	3.4
CNC(=O)c1c(-c2ccc(F)cc2)oc2cc(N(C)S(C)(=O)=O)c(-c3ccc(OC)c(-c4nc5c(F)ccc(F)c5o4)c3)cc12 [Example 874]	2.1
CNC(=O)c1c(-c2ccc(F)cc2)oc2cc(N(C(C)CF)S(C)(=O)=O)c(-c3cccc(-c4nc5ncccc5o4)c3)cc12 (stereo not shown) [Example 875]	2.1
CNC(=O)c1c(-c2ccc(F)cc2)oc2cc(N(CC(F)F)S(C)(=O)=O)c(-c3cc(F)cc(-c4nc5ncccc5o4)c3)cc12 [Example 876]	3.5
CNC(=O)c1c(-c2ccc(F)cc2)oc2cc(N(CC(F)F)S(C)(=O)=O)c(-c3ccc(OC)c(-c4nc5ncccc5o4)c3)cc12 [Example 877]	5.1
CNC(=O)c1c(-c2ccc(F)cc2)oc2cc(N(CC(F)F)S(C)(=O)=O)c(-c3ccc(OC)c(-c4nc5cccc(F)c5o4)c3)cc12 [Example 878]	17.2
CNC(=O)c1c(-c2ccc(F)cc2)oc2cc(N(CCC(C)(C)O)S(C)(=O)=O)c(-c3cc(F)cc(-c4nc5ncccc5o4)c3)cc12 [Example 879]	2.6
CNC(=O)c1c(-c2ccc(F)cc2)oc2cc(N(CCC(C)(C)O)S(C)(=O)=O)c(-c3ccc(OC)c(-c4nc5ncccc5o4)c3)cc12 [Example 880]	2.9

same assay, conditions: read-out: 1b IC50; HCV genotype 1b replicon; 96 hours incubation; NS3/4A cell ELISA

Compound	IC50 [nM]
CNC(=O)c1c(-c2ccc(F)cc2)oc2cc(N(CCF)S(C)(=O)=O)c(-c3cccc(-c4nc5ncccc5o4)c3)cc12 [Example 867]	1.8

— US20120328569A1, “INHIBITORS OF HEPATITIS C VIRUS NS5B POLYMERASE” (priority 2010, published 2012)
